Measurements taken from article PMC8279857, “In Vitro and In Silico Evaluation for the Inhibitory Action of O. basilicum Methanol Extract on α-Glucosidase and α-Amylase” (Evidence-based Complementary and Alternative Medicine : eCAM, 2021).

Molecular target: T1, intestinal α-glucosidase
T1 construct: called intestinal; pNPG assay after Kim et al; 5KZW (docking only) is not the assayed enzyme
Assay: p-nitrophenol release from pNPG, absorbance […] nm
Type: biochemical
Details: p-nitrophenyl α-D-glucopyranoside (250 μL of 20 mM), sodium phosphate pH 6.9, 37°C, 10 min preincubation

IC50: 1.05 ± 0.25 mM
SMILES: O=C(O)/C=C/c1ccc(O)c(O)c1 [caffeic acid]
